Assay results published in US20230190811A1, “COMPOSITIONS AND METHODS FOR USE IN THE TREATMENT OF CANCER” (Poseida Therapeutics, Inc., priority 2020, published 2023).
Where two headings read alike, the source gives them in different places.

What was measured:
[1] = design: plasma level as % of maximal concentration: dose or concentration left out as unconfirmed; conditions: cited from earlier work
cells = conditions: cited from earlier work
[2] = GLP repeat dose intravenous toxicity study of rimiducid in rats; conditions: rat, in vivo
Description: In vitro and in vivo studies have been conducted by Poseida with rimiducid and the iC9-based safety switch-containing CAR-T cell product P-BCMA-101 with similar results. A GLP repeat dose intravenous toxicity study in rats has recently been conducted by Poseida. […] (see Rimiducid Investigator's Brochure for further detail).

[3] = tested on: human pan T-cells with iC9 safety switch; test: iC9 safety switch test: viability of modified T cells incubated with AP1903 (7-AAD flow cytometry); format: cell-based
Description: Human pan T-cells were nucleofected using an Amaxa 4D nucleofector with one of four piggyBac transposons. Modified T cells receiving the “mock” condition were nucleofected with an empty piggyBac transposon. Modified T cells received either a piggyBac transposon containing a therapeutic agent alone (a sequence encoding a CARTyrin) or a piggyBac transposon containing an integrated iC9 sequence and a therapeutic agent (a sequence encoding a CARTyrin). To test the iC9 safety switch, each of the four modified T cells were incubated for 24 hours with 0, 0.1 nM, 1 nM, 10 nM, 100 nM or 1000 nM AP1903 (an induction agent for […]). Viability was assessed by flow cytometry using 7-aminoactinomycin D (7-AAD), a fluorescent intercalator, as a marker for cells undergoing apoptosis.

[4] = tested on: T cells carrying an iC9-based safety switch gene; conditions: cited from earlier work
relapsed/refractory MM = conditions: standard of care; cited from earlier work
[5] = biological target: T1, B-cell maturation antigen (BCMA), human, expressed on cells (human, UniProt Q02223 1-184); test: screen of 4300+ human proteins, each individually expressed in human HEK293 cells
T1 construct: whole, on cells; also called Tumor necrosis factor receptor superfamily member 17 (TNFRSF17)
T1 sequence (looked up): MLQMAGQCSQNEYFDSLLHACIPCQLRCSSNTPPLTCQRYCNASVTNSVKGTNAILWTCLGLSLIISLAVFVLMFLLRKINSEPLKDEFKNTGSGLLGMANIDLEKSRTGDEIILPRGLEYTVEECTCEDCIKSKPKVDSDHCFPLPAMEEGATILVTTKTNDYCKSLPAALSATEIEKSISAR
Description: The Centyrin-Fc fusion protein was screened for binding against 4300+ human proteins. The vast majority of these human proteins represent cell surface membrane proteins, each individually expressed in human HEK293 cells.

In the case of `CC[C@H](C(=O)N1CCCC[C@H]1C(=O)O[C@H](CCc1ccc(OC)c(OC)c1)c1cccc(OCC(=O)NCCNC(=O)COc2cccc([C@@H](CCc3ccc(OC)c(OC)c3)OC(=O)[C@@H]3CCCCN3C(=O)[C@@H](CC)c3cc(OC)c(OC)c(OC)c3)c2)c1)c1cc(OC)c(OC)c(OC)c1` (relative stereo) [AP1903, 2-Piperidinecarboxylic acid, 1-[(2S)-1-oxo-2-(3,4,5-trimethoxyphenyl)butyl]-, 1,2-ethanediylbis[imino(2-oxo-2,1-ethanediyl)oxy-3,1-phenylene[(1R)-3-(3,4-dimethoxyphenyl)propylidene]]ester, [2S-[1(R*),2R*[S*[S*[1(R*),2R*]]]]]-(9C1)], the “plasma levels in relation to dose” value ([1]; 0.01-1.0 mg/kg) is listed as “directly proportional to dose”, the “plasma level as % of maximal concentration” value (“plasma level as %” below) ([1]; 2 hours post-dose) is listed as about 7% and the “plasma level as %” value ([1]; 10 hours post-dose) is listed as about 1%. The well-tolerated doses ([1]; Phase I study) was “up to 1 mg/kg”, the safety and tolerability ([1]; all dose levels 0.01-1.0 mg/kg) was “safe and well tolerated at all dose levels” and the “plasma level as %” value [1] was “approximately 18%”. The “mean Cmax” value ([1]; single dose infused IV over 2 hours, 0.01-1.0 mg/kg dose range) was 10 to 1275 ng/mL, the “amount needed in vitro for effective signaling of cells” value (cells) was 10 to 100 nM and the toxic effect [2] was “No noticeable toxic effect”. The NOAEL ([2]; repeated (three times) intravenous administration) was over 15 mg/kg, the “lowest concentration at which apoptosis is induced” value ([3]; cells containing iC9 construct, 24 hours incubation) was at most 0.1 nM and the “shift of cell population to apoptotic quadrant with increasing induction agent” value ([3]; cells lacking the iC9 construct (CARTyrin only)) was “not observed”. The “modified T cells eliminated” value ([4]; 0.4 mg/kg 2-hour infusion, within 30 minutes following infusion) was 90%, the GVHD outcome ([4]; 0.4 mg/kg) was “GVHD completely resolved” and the adverse events ([4]; clinical studies published to date) was “no significant adverse events”. For the same molecule, the “further depletion of modified T cells” value ([4]; during the next 24 hours) was “further log depletion”, the pharmacokinetics ([4]; human, in vivo) was “consistent and linear pharmacokinetics” and the toxicity ([4]; within and above the effective dose range (0.01-1.0 mg/kg)) was “effectively no toxicity”.

In the case of “daratumumab: recently approved standard of care agent (mAb) for multiple myeloma”, the response rate (relapsed/refractory MM) is given as at most 30%.

B1: Centyrin-Fc fusion protein (the Centyrin from P-BCMA-101 fused to Fc) (Fc fusion)
chain: MLPAPKNLVVSRITEDSARLSWTAPDAAFDSFPIRYIETLIWGEAIWLDVPGSERSYDLTGLKPGTEYAVVITGVKGGRFSSPLVASFTT
notes: not shown: Fc part, any linker and the order of the parts are not described
B1: binds [5].
